Laboratory results from patent US20200270309A1, “MALEIMIDE GROUP-MODIFIED ANGIOGENESIS INHIBITOR HM-1 AND USE THEREOF” (NANJING ANJI BIOLOGICAL TECHNOLOGY CO., LTD, priority 2017, published 2020).
Peptide text beside a SMILES is read from it. * marks the point of attachment. X22 = O=C1C=CC(=O)N1CCOCCOCCOCCOCCOCCOCCCCCC(=O)*; X41 = O=C1C=CC(=O)N1c1ccc(CCCCCCCCCCCCC(=O)*)cc1; X9 = O=C1C=CC(=O)N1CCOCCOCCOCCOCCOCCCCCCCC(=O)*; X73 = O=C1C=CC(=O)N1c1ccc(CCCCCCCCCC(=O)*)cc1; X69 = O=C1C=CC(=O)N1c1ccc(CCCCC(=O)*)cc1; X56 = O=C1C=CC(=O)N1c1ccc(CCC(=O)*)cc1; X62 = O=C1C=CC(=O)N1CCCCCCCCCCCCC(=O)*; X15 = O=C1C=CC(=O)N1CCOCCOCCOCCC(=O)*; X81 = O=C1C=CC(=O)N1c1ccccc1CCCC(=O)*; X2 = O=C1C=CC(=O)N1CCOCCOCCCCCC(=O)*

Assay: Half-lives and pharmacokinetic parameters of polypeptides vs HM-1
Settings: in vivo; for half-life: T1/2β (half-life)

Row | SMILES | AUC(0-inf) [ng·h/mL] | MRT inf [h] | clearance [mL/min/kg] | half-life [h]
1 | C[C@H](NC(=O)CNC(=O)[C@H](CCCNC(=N)N)NC(=O)CCCc1ccccc1N1C(=O)C=CC1=O)C(=O)N[C@@H](CC(=O)O)C(=O)N[C@@H](CCCNC(=N)N)C(=O)N[C@@H](C)C(=O)NCC(=O)NCC(=O)NCC(=O)NCC(=O)N[C@@H](CCCNC(=N)N)C(=O)NCC(=O)N[C@@H](CC(=O)O)C(=O)O [X15] (X81-RGADRAGGGGRGD-OH) | 34400 ± 8520 | 61.5 ± 10 | 0.485 | 42.65 ± 0.25
2 | C[C@H](NC(=O)CNC(=O)[C@H](CCCNC(=N)N)NC(=O)CCCCc1ccc(N2C(=O)C=CC2=O)cc1)C(=O)N[C@@H](CC(=O)O)C(=O)N[C@@H](CCCNC(=N)N)C(=O)N[C@@H](C)C(=O)NCC(=O)NCC(=O)NCC(=O)NCC(=O)N[C@@H](CCCNC(=N)N)C(=O)NCC(=O)N[C@@H](CC(=O)O)C(=O)O [X40] (X69-RGADRAGGGGRGD-OH) | 34000 ± 7830 | 60.9 ± 10.7 | 0.49 | 42.23 ± 0.27
3 | C[C@H](NC(=O)CNC(=O)[C@H](CCCNC(=N)N)NC(=O)CCCCCCCOCCOCCOCCOCCOCCN1C(=O)C=CC1=O)C(=O)N[C@@H](CC(=O)O)C(=O)N[C@@H](CCCNC(=N)N)C(=O)N[C@@H](C)C(=O)NCC(=O)NCC(=O)NCC(=O)NCC(=O)N[C@@H](CCCNC(=N)N)C(=O)NCC(=O)N[C@@H](CC(=O)O)C(=O)O [X83] (X9-RGADRAGGGGRGD-OH) | 29200 ± 7640 | 52.3 ± 11.7 | 0.57 | 36.23 ± 0.28
4 | C[C@H](NC(=O)CNC(=O)[C@H](CCCNC(=N)N)NC(=O)CCOCCOCCOCCN1C(=O)C=CC1=O)C(=O)N[C@@H](CC(=O)O)C(=O)N[C@@H](CCCNC(=N)N)C(=O)N[C@@H](C)C(=O)NCC(=O)NCC(=O)NCC(=O)NCC(=O)N[C@@H](CCCNC(=N)N)C(=O)NCC(=O)N[C@@H](CC(=O)O)C(=O)O [X64] (X15-RGADRAGGGGRGD-OH) | 32300 ± 7250 | 57.7 ± 13 | 0.517 | 39.97 ± 0.28
5 | C[C@H](NC(=O)CNC(=O)[C@H](CCCNC(=N)N)NC(=O)CCCCCOCCOCCOCCOCCOCCOCCN1C(=O)C=CC1=O)C(=O)N[C@@H](CC(=O)O)C(=O)N[C@@H](CCCNC(=N)N)C(=O)N[C@@H](C)C(=O)NCC(=O)NCC(=O)NCC(=O)NCC(=O)N[C@@H](CCCNC(=N)N)C(=O)NCC(=O)N[C@@H](CC(=O)O)C(=O)O [X88] (X22-RGADRAGGGGRGD-OH) | 31800 ± 7130 | 56.9 ± 10.1 | 0.523 | 39.45 ± 0.33
6 | C[C@H](NC(=O)CNC(=O)[C@H](CCCNC(=N)N)NC(=O)CCCCCCCCCCCCc1ccc(N2C(=O)C=CC2=O)cc1)C(=O)N[C@@H](CC(=O)O)C(=O)N[C@@H](CCCNC(=N)N)C(=O)N[C@@H](C)C(=O)NCC(=O)NCC(=O)NCC(=O)NCC(=O)N[C@@H](CCCNC(=N)N)C(=O)NCC(=O)N[C@@H](CC(=O)O)C(=O)O [X48] (X41-RGADRAGGGGRGD-OH) | 29200 ± 7650 | 52.9 ± 12.1 | 0.565 | 36.64 ± 0.27
7 | C[C@H](NC(=O)CNC(=O)[C@H](CCCNC(=N)N)NC(=O)CCCCCOCCOCCN1C(=O)C=CC1=O)C(=O)N[C@@H](CC(=O)O)C(=O)N[C@@H](CCCNC(=N)N)C(=O)N[C@@H](C)C(=O)NCC(=O)NCC(=O)NCC(=O)NCC(=O)N[C@@H](CCCNC(=N)N)C(=O)NCC(=O)N[C@@H](CC(=O)O)C(=O)O [X60] (X2-RGADRAGGGGRGD-OH) | 30200 ± 7290 | 54.1 ± 11.7 | 0.552 | 37.51 ± 0.25
8 | C[C@H](NC(=O)CNC(=O)[C@H](CCCNC(=N)N)NC(=O)CCCCCCCCCCCCN1C(=O)C=CC1=O)C(=O)N[C@@H](CC(=O)O)C(=O)N[C@@H](CCCNC(=N)N)C(=O)N[C@@H](C)C(=O)NCC(=O)NCC(=O)NCC(=O)NCC(=O)N[C@@H](CCCNC(=N)N)C(=O)NCC(=O)N[C@@H](CC(=O)O)C(=O)O [X12] (X62-RGADRAGGGGRGD-OH) | 29200 ± 8180 | 52.2 ± 9.78 | 0.572 | 36.2 ± 0.25
9 | C[C@H](NC(=O)CNC(=O)[C@H](CCCNC(=N)N)NC(=O)CCc1ccc(N2C(=O)C=CC2=O)cc1)C(=O)N[C@@H](CC(=O)O)C(=O)N[C@@H](CCCNC(=N)N)C(=O)N[C@@H](C)C(=O)NCC(=O)NCC(=O)NCC(=O)NCC(=O)N[C@@H](CCCNC(=N)N)C(=O)NCC(=O)N[C@@H](CC(=O)O)C(=O)O [X38] (X56-RGADRAGGGGRGD-OH) | 31400 ± 7550 | 56.2 ± 11.2 | 0.532 | 38.94 ± 0.25
10 | C[C@H](NC(=O)CNC(=O)[C@H](CCCNC(=N)N)NC(=O)CCCCCCCCCc1ccc(N2C(=O)C=CC2=O)cc1)C(=O)N[C@@H](CC(=O)O)C(=O)N[C@@H](CCCNC(=N)N)C(=O)N[C@@H](C)C(=O)NCC(=O)NCC(=O)NCC(=O)NCC(=O)N[C@@H](CCCNC(=N)N)C(=O)NCC(=O)N[C@@H](CC(=O)O)C(=O)O [X45] (X73-RGADRAGGGGRGD-OH) | 24300 ± 8330 | 43.5 ± 12 | 0.685 | 30.15 ± 0.26
